± gives the standard deviation of the averaged measurements.
What follows are molecules tested on BV-173 (assay: not given). Details: 72 h.
How it was run: (§1)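 Fifteen myeloid leukaemia cell lines were seeded in RPMI 1640 at a density titrated to the linear growth range. Each line went into 384-well plates with compounds acoustically pre-printed at five tenfold doses from 1 to 10,000 nM, in duplicate, and was incubated for 72 h at 37 °C with 5% CO2. Luminescent ATP viability was normalised to vehicle and to a positive control at 10 µM. The IC50 came from four-parameter log-logistic dose–response fits.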

Row | Compound | IC50 (cell viability) [µM]
1 | O=C(CCl)N(CCCNC(=O)C(F)(F)F)c1ccc([N+](=O)[O-])cc1 [ML175] | 0.32
2 | CN(C)C(=N)NC(=N)N [Metformin] | > 10
3 | Cl.OC[C@H]1NC[C@H](O)[C@@H](O)[C@H]1O [Migalastat] | > 10
4 | OCCN1C[C@H](O)[C@@H](O)[C@H](O)[C@H]1CO [Miglitol] | > 10
5 | CCCCCCCCCCCCC/C=C/[C@@H](O)[C@H](CO)N(C)C [N,N-Dimethylsphingosine] | 1.67
6 | CCCCCCCNC=O [N-Heptyl-Formamide] | > 10

The molecules below were run on KCL-22 (assay: not given). Details: 72 h.
How it was run: as §1

Row | Compound | IC50 (cell viability) [µM]
7 | O=C(Oc1ccc([N+](=O)[O-])cc1)N1CCC(C(O)(c2ccc3c(c2)OCO3)c2ccc3c(c2)OCO3)CC1 [JZL184] | > 10
8 | O=C1N[C@@H]2[C@@H](O)[C@@H](O)[C@H](O)[C@@H](CO)N2C1=O [Kifunensine] | > 10
9 | CC(C)(CCCCCCCCCCC(C)(C)CC(=O)O)CC(=O)O [MEDICA 16] | > 10
10 | Cc1nnc(-c2ccc(N3CCC(Oc4ccccc4C(F)(F)F)CC3)nn2)s1 [MF-438] | 2.29
11 | CC(C)c1ccc2c(c1)c(SC(C)(C)C)c(CC(C)(C)C(=O)O)n2Cc1ccc(Cl)cc1 [MK-886] | 4.26
12 | O=C(CCl)N(CCCNC(=O)C(F)(F)F)c1ccc([N+](=O)[O-])cc1 [ML175] | 2.07
13 | CN(C)C(=N)NC(=N)N [Metformin] | > 10
14 | Cl.OC[C@H]1NC[C@H](O)[C@@H](O)[C@H]1O [Migalastat] | > 10
15 | OCCN1C[C@H](O)[C@@H](O)[C@H](O)[C@H]1CO [Miglitol] | > 10
16 | CCCCCCCCCCCCC/C=C/[C@@H](O)[C@H](CO)N(C)C [N,N-Dimethylsphingosine] | 2.78
17 | CCCCCCCNC=O [N-Heptyl-Formamide] | > 10

Each molecule was assayed on MV4-11 (assay: not given). Details: 72 h.
How it was run: as §1

Row | Compound | IC50 (cell viability) [µM]
18 | O=C(Oc1ccc([N+](=O)[O-])cc1)N1CCC(C(O)(c2ccc3c(c2)OCO3)c2ccc3c(c2)OCO3)CC1 [JZL184] | > 10
19 | O=C1N[C@@H]2[C@@H](O)[C@@H](O)[C@H](O)[C@@H](CO)N2C1=O [Kifunensine] | > 10
20 | CC(C)(CCCCCCCCCCC(C)(C)CC(=O)O)CC(=O)O [MEDICA 16] | > 10
21 | Cc1nnc(-c2ccc(N3CCC(Oc4ccccc4C(F)(F)F)CC3)nn2)s1 [MF-438] | 9.32
22 | CC(C)c1ccc2c(c1)c(SC(C)(C)C)c(CC(C)(C)C(=O)O)n2Cc1ccc(Cl)cc1 [MK-886] | > 10
23 | O=C(CCl)N(CCCNC(=O)C(F)(F)F)c1ccc([N+](=O)[O-])cc1 [ML175] | 0.309
24 | CN(C)C(=N)NC(=N)N [Metformin] | > 10
25 | Cl.OC[C@H]1NC[C@H](O)[C@@H](O)[C@H]1O [Migalastat] | > 10
26 | OCCN1C[C@H](O)[C@@H](O)[C@H](O)[C@H]1CO [Miglitol] | > 10
27 | CCCCCCCCCCCCC/C=C/[C@@H](O)[C@H](CO)N(C)C [N,N-Dimethylsphingosine] | > 10
28 | CCCCCCCNC=O [N-Heptyl-Formamide] | > 10

These molecules were tested on Mono-Mac-6 (assay: not given). Details: 72 h.
How it was run: as §1

Row | Compound | IC50 (cell viability) [µM]
29 | O=C(Oc1ccc([N+](=O)[O-])cc1)N1CCC(C(O)(c2ccc3c(c2)OCO3)c2ccc3c(c2)OCO3)CC1 [JZL184] | > 10
30 | O=C1N[C@@H]2[C@@H](O)[C@@H](O)[C@H](O)[C@@H](CO)N2C1=O [Kifunensine] | > 10
31 | CC(C)(CCCCCCCCCCC(C)(C)CC(=O)O)CC(=O)O [MEDICA 16] | > 10
32 | Cc1nnc(-c2ccc(N3CCC(Oc4ccccc4C(F)(F)F)CC3)nn2)s1 [MF-438] | > 10
33 | CC(C)c1ccc2c(c1)c(SC(C)(C)C)c(CC(C)(C)C(=O)O)n2Cc1ccc(Cl)cc1 [MK-886] | > 10
34 | O=C(CCl)N(CCCNC(=O)C(F)(F)F)c1ccc([N+](=O)[O-])cc1 [ML175] | 0.896
35 | CN(C)C(=N)NC(=N)N [Metformin] | > 10
36 | Cl.OC[C@H]1NC[C@H](O)[C@@H](O)[C@H]1O [Migalastat] | > 10
37 | OCCN1C[C@H](O)[C@@H](O)[C@H](O)[C@H]1CO [Miglitol] | > 10
38 | CCCCCCCCCCCCC/C=C/[C@@H](O)[C@H](CO)N(C)C [N,N-Dimethylsphingosine] | > 10
39 | CCCCCCCNC=O [N-Heptyl-Formamide] | > 10

Each molecule was assayed on HL-60 (assay: cell viability (% survival relative to DMSO control); higher = less cytotoxic). Details: 0.001 µM; 72 h; co-treatment: AZD3965 100 nM.
How it was run: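 In 384-well plates, the full library was rescreened in duplicate on HL-60 cells in RPMI 1640 with 10% FBS, at 1–10,000 nM in five tenfold concentrations, for 72 h at 37 °C, 5% CO2. Each run also held DMSO or 100 nM of one of three metabolic inhibitors. Viability was measured by CellTiter-Glo and normalised to DMSO wells and to wells with proteasome inhibitor, present at 10 μM. Any area under the curve comes from four-parameter log-logistic fitting with drc and PharmacoGx.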

Row | Compound | cell viability [%]
40 | O=C(Oc1ccc([N+](=O)[O-])cc1)N1CCC(C(O)(c2ccc3c(c2)OCO3)c2ccc3c(c2)OCO3)CC1 [JZL184] | 110 ± 11
41 | O=C1N[C@@H]2[C@@H](O)[C@@H](O)[C@H](O)[C@@H](CO)N2C1=O [Kifunensine] | 93.1 ± 5.7
42 | CC(C)(CCCCCCCCCCC(C)(C)CC(=O)O)CC(=O)O [MEDICA 16] | 100 ± 4.3
43 | Cc1nnc(-c2ccc(N3CCC(Oc4ccccc4C(F)(F)F)CC3)nn2)s1 [MF-438] | 88.9 ± 8.7
44 | CC(C)c1ccc2c(c1)c(SC(C)(C)C)c(CC(C)(C)C(=O)O)n2Cc1ccc(Cl)cc1 [MK-886] | 105 ± 4.8
45 | O=C(CCl)N(CCCNC(=O)C(F)(F)F)c1ccc([N+](=O)[O-])cc1 [ML175] | 103 ± 2.1
46 | CN(C)C(=N)NC(=N)N [Metformin] | 94.9 ± 4
47 | Cl.OC[C@H]1NC[C@H](O)[C@@H](O)[C@H]1O [Migalastat] | 106 ± 1.8
48 | OCCN1C[C@H](O)[C@@H](O)[C@H](O)[C@H]1CO [Miglitol] | 100.7 ± 0.68
49 | CCCCCCCCCCCCC/C=C/[C@@H](O)[C@H](CO)N(C)C [N,N-Dimethylsphingosine] | 95.3 ± 2.7
50 | CCCCCCCNC=O [N-Heptyl-Formamide] | 104.63 ± 0.079

Same assay, conditions: 0.001 µM; 72 h; co-treatment: DMSO vehicle

Row | Compound | cell viability [%]
51 | O=C(Oc1ccc([N+](=O)[O-])cc1)N1CCC(C(O)(c2ccc3c(c2)OCO3)c2ccc3c(c2)OCO3)CC1 [JZL184] | 100 ± 1.5
52 | O=C1N[C@@H]2[C@@H](O)[C@@H](O)[C@H](O)[C@@H](CO)N2C1=O [Kifunensine] | 96.82 ± 0.8
53 | CC(C)(CCCCCCCCCCC(C)(C)CC(=O)O)CC(=O)O [MEDICA 16] | 98.9 ± 3.6
54 | Cc1nnc(-c2ccc(N3CCC(Oc4ccccc4C(F)(F)F)CC3)nn2)s1 [MF-438] | 101 ± 14
55 | CC(C)c1ccc2c(c1)c(SC(C)(C)C)c(CC(C)(C)C(=O)O)n2Cc1ccc(Cl)cc1 [MK-886] | 103 ± 0.78
56 | O=C(CCl)N(CCCNC(=O)C(F)(F)F)c1ccc([N+](=O)[O-])cc1 [ML175] | 104 ± 5.9
57 | CN(C)C(=N)NC(=N)N [Metformin] | 101.9 ± 0.7
58 | Cl.OC[C@H]1NC[C@H](O)[C@@H](O)[C@H]1O [Migalastat] | 103 ± 1.2
59 | OCCN1C[C@H](O)[C@@H](O)[C@H](O)[C@H]1CO [Miglitol] | 96 ± 3.3
60 | CCCCCCCCCCCCC/C=C/[C@@H](O)[C@H](CO)N(C)C [N,N-Dimethylsphingosine] | 98.6 ± 0.98
61 | CCCCCCCNC=O [N-Heptyl-Formamide] | 101.3 ± 0.22

Same assay, conditions: 0.001 µM; 72 h; co-treatment: GSK2194069 100 nM

Row | Compound | cell viability [%]
62 | O=C(Oc1ccc([N+](=O)[O-])cc1)N1CCC(C(O)(c2ccc3c(c2)OCO3)c2ccc3c(c2)OCO3)CC1 [JZL184] | 103 ± 3.2
63 | O=C1N[C@@H]2[C@@H](O)[C@@H](O)[C@H](O)[C@@H](CO)N2C1=O [Kifunensine] | 95.7 ± 6.9
64 | CC(C)(CCCCCCCCCCC(C)(C)CC(=O)O)CC(=O)O [MEDICA 16] | 101.1 ± 0.91

Reference: the supplement of paper PMC8671470
